Results taken from patent US6362176B1, “Compositions, methods and kits for treating rheumatoid arthritis” (Super Gen, Inc., priority 1998, dated 2002).

How the values were obtained:
individuals with RA = details: cited from earlier work
[1] = cited from earlier work
RA patients [2] = assay: pentostatin monotherapy on a monthly schedule (inventor); assay type: in vivo, human; details: treatment continued past the flare
Description: When the treatment was continued past the flare, approximately a third of the patients entered a pharmaceutical free remission for a period of weeks or months.

RA patients [3] = details: bi-weekly pentostatin, months 1 and 3; cited from earlier work
CLL; hairy cell leukemia = details: cited from earlier work
[4] = 4 mg/M^2 once a week x3 or 4 followed by once every three to four weeks

SMILES	patients remaining on methotrexate for two or more years (individuals with RA; in vivo)	time to worsening of RA after monotherapy is discontinued (individuals with RA; in vivo)	patients expected to obtain at least partial relief (individuals with RA; methotrexate monotherapy, recent studies)	individuals still on the drug five years after starting (individuals with RA; methotrexate monotherapy)	individuals with RA getting some favorable response (individuals with RA; methotrexate monotherapy)	patients entering remission as defined by ACR criteria (individuals with RA; methotrexate monotherapy)	time of peak serum concentrations ([1]; intramuscular administration)	absorption ([1]; parenteral administration)	patients entering a pharmaceutical free remission for weeks or months (RA patients [2])	patients with significant flare (duration of morning stiffness, tender and swollen joints) (RA patients [3])	efficacy in hairy cell leukemia (CLL; hairy cell leukemia; [4])	toxicity at even lower doses (CLL; hairy cell leukemia; [4])	toxicity at lower doses (CLL; hairy cell leukemia; 5 mg/M^2 on two successive days)	clinical response in CLL (CLL; hairy cell leukemia; doses of 1.0 to 13.5 mg/kg)	toxicity at very high doses (CLL; hairy cell leukemia; very high doses)
CN(Cc1cnc2nc(N)nc(N)c2n1)c1ccc(C(=O)N[C@@H](CCC(=O)O)C(=O)O)cc1 [methotrexate, N-[4-[[(2,4-diamino-6-pteridinyl)methyl]methylamino]benzoyl]-L-glutamic acid]	Up to 70%	three to six	about 70%	over 50%	Approximately 70%	less than 30%	thirty to sixty	generally complete absorption							
OC[C@H]1O[C@@H](n2cnc3c2NC=NC[C@H]3O)C[C@@H]1O [pentostatin, 2′-deoxycoformycin]									approximately a third	9 of 11	effective in inducing remission in hairy cell leukemia	no toxicity	mild with transient leukopenia, nausea and lethargy or somnolence	cytoreduction but no clinically meaningful remission in CLL	substantial and may include renal failure secondary to acute tubular necrosis, central nervous system toxicity (seizures), pulmonary edema, and keratoconjunctivitis
